Test results reported in patent US20260132125A1, “PESTICIDALLY ACTIVE FUSED BICYCLIC HETEROAROMATIC COMPOUNDS” (priority 2022, published 2026).

How the values were obtained:
Format in all cases: in vivo
Plutella xylostella [1] = assay: Example B5: activity against Plutella xylostella (diamond back moth), artificial diet, eggs; settings: 192 h, 8 days after infestation, read-out: effect in at least one of the two categories (mortality or growth inhibition)
In short: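 Artificial diet in 24-well plates was treated with aqueous dilutions of DMSO stocks, dried, then infested with Plutella eggs. Mortality and growth inhibition were scored against untreated samples 8 days after infestation; application rate 200 ppm.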

Chilo suppressalis = assay: Example B1: activity against Chilo suppressalis (striped rice stemborer), artificial diet; settings: for percent control (mortality, anti-feedant effect or growth inhibition) at 200 ppm: 144 h, L2 larvae, 6 days after infestation, read-out: control (at least one of mortality, anti-feedant effect, growth inhibition)
In short: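 Diet-incorporation surface assay: aqueous dilutions of 10'000 ppm DMSO stock applied to artificial diet, dried; 6-8 L2 larvae/well; read day 6 post-infestation for mortality, antifeedant effect, growth inhibition vs untreated. Active if any category above untreated.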

Diabrotica balteata [2] = assay: Example B2: activity against Diabrotica balteata (corn root worm), maize sprouts; settings: 96 h, L2 larvae, 4 days after infestation, read-out: effect in at least one of the two categories (mortality or growth inhibition)
In short: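 Maize sprouts on agar were sprayed with aqueous test solutions made from 10′000 ppm DMSO stocks, dried, then infested with 6–10 L2 larvae per well. Mortality and growth inhibition were scored against untreated samples 4 days after infestation, at an application rate of 200 ppm.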

Spodoptera littoralis = assay: Example B6: activity against Spodoptera littoralis (Egyptian cotton leaf worm), cotton leaf discs; settings: foliar; for percent control (mortality, anti-feedant effect or growth inhibition) at 200 ppm: 72 h, L1 larvae, 3 days after infestation, read-out: control (at least one of mortality, anti-feedant effect, growth inhibition)
In short: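 Five L1 larvae per sprayed, dried cotton leaf disc on agar. Activity is counted when mortality, anti-feedant effect or growth inhibition exceeds the untreated sample at day 3.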

Pseudoplusia includens = assay: Example B9: Pseudoplusia includens (soybean looper), larvicide, feeding/contact, soybean plants; settings: Chrysodeixis includens; for percent effect (mortality or growth inhibition) at 50 ppm: 120 h, L2 larvae, 5 days after infestation, read-out: effect in at least one of the two categories (mortality or growth inhibition)
In short: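 Soybean plants sprayed, cut and held in dishes on wet filter paper; infested 1 d after application with 5 L2 larvae. Mortality and growth inhibition assessed 5 days after infestation; tested at 50 ppm.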

Myzus persicae [3] = assay: Example B4: activity against Myzus persicae (green peach aphid), intrinsic activity; settings: 120 h, test rate 12 ppm, 5 days after infestation
In short: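 Compounds from 10′000 ppm DMSO stocks were mixed into sucrose solution in 24-well plates sealed with Parafilm. Aphid-infested pea seedlings were set on the membrane and the plate inverted so aphids fed through it. Mortality scored 5 days after infestation.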

Myzus persicae [4] = assay: Example B7a: Myzus persicae feeding/contact activity, sunflower leaf discs; settings: foliar, 144 h, mixed ages, 6 days after infestation
Description: Sunflower leaf discs were placed onto agar in a 24-well microtiter plate and sprayed with aqueous test solutions prepared from 10′000 ppm DMSO stock solutions. After drying, the leaf discs were infested with an aphid population of mixed ages. The samples were assessed for mortality 6 days after infestation.

[5] = test system: Carpocapsa (Cydia) pomonella; assay: Example B10: Carpocapsa (Cydia) pomonella (codling moth), larvicide, feeding/contact, diet cubes; settings: 336 h, L1 larvae, 14 days after infestation, read-out: effect in at least one of the two categories (mortality or growth inhibition)
Description: Diet cubes coated with paraffin were sprayed with diluted test solutions in an application chamber. After drying off the treated cubes (10 replicates) were infested with 1 L1 larvae. Samples were incubated at 26-27° C. and checked 14 days after infestation for mortality and growth inhibition. The following compounds gave an effect of at least 80% in at least one of the two categories (mortality or growth inhibition) at an application rate of 50 ppm: […]

Euschistus heros = assay: Example B3: activity against Euschistus heros (neotropical brown stink bug), soybean leaves; settings: for percent effect (mortality or growth inhibition) at 200 ppm: 120 h, N2 nymphs, 5 days after infestation, read-out: effect in at least one of the two categories (mortality or growth inhibition)
In short: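 Soybean leaves on agar sprayed with aqueous dilutions of DMSO stock (10′000 ppm), dried, then infested with N2 nymphs. Mortality and growth inhibition scored against untreated samples 5 days after infestation; application rate 200 ppm.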

Plutella xylostella [6] = assay: B14b: Plutella xylostella (diamond back moth), larvicide L3, feeding/contact, Chinese cabbage
Text: (§1) Activity of compounds P5, P17 and P21 according to the preparatory examples and of a compound from WO 21/083936 against Spodoptera littoralis (Example B6 above), Chilo suppressalis (Example B1 above), Diabrotica balteata (Example B14a below), Plutella xylostella (Example B14b below) and Pseudoplusia includens (Example B9 above) is summarized in Table B14. B14a: Diabrotica balteata (Corn root worm). Larvicide, feeding/contact 3 Corn seedlings were placed on wetted filter paper in plastic cups, and 3 ml of diluted test solutions were pipetted onto them. The cups were infested with 10 L2 larvae and checked for mortality and growth regulation 5 days after treatment. B14b: Plutella xylostella (Diamond back moth). Larvicide L3, feeding/contact Chinese cabbage plants were sprayed with diluted test solutions in an application chamber. Cut off leaves were placed into petri dishes with wetted filter paper and infested 1 day after application with 10 L3 larvae. Samples were assessed 4 days after infestation for mortality and growth regulation.

Diabrotica balteata [7] = assay: B14a: Diabrotica balteata (corn root worm), larvicide, feeding/contact, corn seedlings
Text: as §1

Tetranychus urticae = assay: Example B8: activity against Tetranychus urticae (two-spotted spider mite), bean leaf discs; settings: foliar, 192 h, mixed population (mobile stages), 8 days after infestation
Description: Bean leaf discs on agar in 24-well microtiter plates were sprayed with aqueous test solutions prepared from 10′000 ppm DMSO stock solutions. After drying the leaf discs were infested with a mite population of mixed ages. The samples were assessed for mortality on mixed population (mobile stages) 8 days after infestation.

Structure (SMILES): C[C@H](Nc1ncnc2c(Cl)cc(I)cc12)c1ncnn1-c1cc(C(N)=O)ncn1 [Compound P2, 6-[5-[(1S)-1-[(8-chloro-6-iodo-quinazolin-4-yl)amino]ethyl]-1,2,4-triazol-1-yl]pyrimidine-4-carboxamide]
- percent effect (mortality or growth inhibition) at 200 ppm (Plutella xylostella [1]): ≥ 80%
- percent control (mortality, anti-feedant effect or growth inhibition) at 200 ppm (Chilo suppressalis): ≥ 80%
- percent effect (mortality or growth inhibition) at 200 ppm (Diabrotica balteata [2]): ≥ 80%
- percent control (mortality, anti-feedant effect or growth inhibition) at 200 ppm (Spodoptera littoralis): ≥ 80%
- percent effect (mortality or growth inhibition) at 50 ppm (Pseudoplusia includens): ≥ 80%
- mortality at 12 ppm (Myzus persicae [3]): ≥ 80%
- mortality at 200 ppm (Myzus persicae [4]): ≥ 80%
- percent effect (mortality or growth inhibition) at 50 ppm [5]: ≥ 80%

Structure (SMILES): C[C@H](Nc1ncnc2c(C(F)(F)F)cc(Cl)cc12)c1ncnn1-c1cc(C(N)=O)ncn1 [Compound P5, 6-[5-[(1S)-1-[[6-chloro-8-(trifluoromethyl)quinazolin-4-yl]amino]ethyl]-1,2,4-triazol-1-yl]pyrimidine-4-carboxamide]
- percent effect (mortality or growth inhibition) at 200 ppm (Plutella xylostella [1]): ≥ 80%
- mortality at 3.12 ppm (Chilo suppressalis; 3.12 ppm): 80%
- percent control (mortality, anti-feedant effect or growth inhibition) at 200 ppm (Chilo suppressalis): ≥ 80%
- mortality at 200 ppm (Euschistus heros): 100%
- percent effect (mortality or growth inhibition) at 200 ppm (Euschistus heros): ≥ 80%
- percent effect (mortality or growth inhibition) at 200 ppm (Diabrotica balteata [2]): ≥ 80%
- mortality at 0.8 ppm (Plutella xylostella [6]; 0.8 ppm): 95%
- mortality at 3 ppm (Plutella xylostella [6]; 3 ppm): 100%
- mortality at 0.8 ppm (Diabrotica balteata [7]): 100%
- mortality at 3.12 ppm (Spodoptera littoralis; 3.12 ppm): 100%
- percent control (mortality, anti-feedant effect or growth inhibition) at 200 ppm (Spodoptera littoralis): ≥ 80%
- percent effect (mortality or growth inhibition) at 50 ppm (Pseudoplusia includens): ≥ 80%
- mortality at 0.8 ppm (Pseudoplusia includens; Pseudoplusia includens, 0.8 ppm): 70%
- mortality at 12.5 ppm (Pseudoplusia includens; Pseudoplusia includens, 12.5 ppm): 100%
- mortality at 12 ppm (Myzus persicae [3]): ≥ 80%

Structure (SMILES): CNC(=O)c1cc(-n2ncnc2[C@H](C)N(C)c2ncnc3c(C(F)(F)F)cc(Cl)cc23)ncn1 [Compound P9, 6-[5-[(1S)-1-[[6-chloro-8-(trifluoromethyl)quinazolin-4-yl]-methyl-amino]ethyl]-1,2,4-triazol-1-yl]-N-methyl-pyrimidine-4-carboxamide]
- percent effect (mortality or growth inhibition) at 200 ppm (Plutella xylostella [1]): ≥ 80%
- percent control (mortality, anti-feedant effect or growth inhibition) at 200 ppm (Chilo suppressalis): ≥ 80%
- percent effect (mortality or growth inhibition) at 200 ppm (Euschistus heros): ≥ 80%
- percent effect (mortality or growth inhibition) at 200 ppm (Diabrotica balteata [2]): ≥ 80%
- percent control (mortality, anti-feedant effect or growth inhibition) at 200 ppm (Spodoptera littoralis): ≥ 80%
- percent effect (mortality or growth inhibition) at 50 ppm (Pseudoplusia includens): ≥ 80%
- mortality at 12 ppm (Myzus persicae [3]): ≥ 80%
- mortality at 200 ppm (Myzus persicae [4]): ≥ 80%
- percent effect (mortality or growth inhibition) at 50 ppm [5]: ≥ 80%

Structure (SMILES): C[C@H](Nc1ncnc2c(I)cc(Cl)cc12)c1ncnn1-c1cc(C(N)=O)ncn1 [Compound P13, 6-[5-[(1S)-1-[(6-chloro-8-iodo-quinazolin-4-yl)amino]ethyl]-1,2,4-triazol-1-yl]pyrimidine-4-carboxamide]
- percent effect (mortality or growth inhibition) at 200 ppm (Plutella xylostella [1]): ≥ 80%
- percent control (mortality, anti-feedant effect or growth inhibition) at 200 ppm (Chilo suppressalis): ≥ 80%
- percent effect (mortality or growth inhibition) at 200 ppm (Diabrotica balteata [2]): ≥ 80%
- percent control (mortality, anti-feedant effect or growth inhibition) at 200 ppm (Spodoptera littoralis): ≥ 80%
- percent effect (mortality or growth inhibition) at 50 ppm (Pseudoplusia includens): ≥ 80%
- mortality at 200 ppm (Tetranychus urticae): ≥ 80%
- mortality at 12 ppm (Myzus persicae [3]): ≥ 80%
- mortality at 200 ppm (Myzus persicae [4]): ≥ 80%
- percent effect (mortality or growth inhibition) at 50 ppm [5]: ≥ 80%
